Source: patent publication US11224614B2, “Compositions and methods for increasing iron intake in a mammal” (Solvotrin Therapeutics Limited, priority 2014, dated 2022)

Columns and labels:
[1] = In-vivo gastrointestinal tolerability (modified GSRS, Bristol Stool Chart), cross-over; set-up: species or system human; conditions: modified GSRS 0-3, Bristol Stool Chart; p=0.02 and p=0.03
Protocol: In a separate study using random, blinded, prospective allocation to beads prepared in accordance with the invention or FeSO4.7H2O in identical size 0 gelatin capsules, in-vivo gastrointesinal tolerability was assessed in a cross-over design. The test articles were taken in the morning after fasting for 10 hours with baseline and 2 hour fasting blood draws. After 2 hours fasting, food was taken as normal and over the following 24 hours, a modified Gastrointestinal Symptom Rating Scale (GSRS) was completed. This rates the following symptoms as 0=none, 1=mild, 2=moderate, 3=severe: • Abdominal pain/cramps • Nausea/vomiting • Abdominal bloating • Borborygmus (abdominal rumbling) • Flatulence/wind
In addition the products were taken on 3 consecutive days and the Bristol Stool Chart was used to assess constipation/diarrhoea. Positive score changes from baseline normality (=0) indicated constipation.

[2] = Simulated intestinal dissolution, pH 6.6 with pancreatin and bile acids; type: physicochemical; conditions: pH 6.6 over 1 hour, FIG. 5
Protocol: A solution of iron (II) sulfate in water (10 mM) was serially diluted using pH 1.8 KCl buffer. Aliquots (100 μl) of the diluted solutions were added to a 96-well plate containing 100 μl of 1,10-phenanthroline (5 mM). The plate was read at 490 nm on a multiwall plate reader in order to construct a calibration curve. Dissolution samples were diluted ten-fold typically at pH 1.6 into phenanthroline (5 mM) and the samples read rapidly under N2 blanketing.
A 50 mg quantity of beads was transferred to a vial containing 10M HCl (10 ml) and left overnight at room temperature. The resulting solution was shaken and then a 100 μl aliquot was transferred into 900 μl of 10M HCl. A 100 μl aliquot of the diluted solution was added to a 96-well plate containing 1M sodium thiocyanate (100 μl). Absorbance was measured at 450 nm on a multiwell plate reader. The concentration of the iron III was estimated by reference to a series of iron III standard solutions.
An accurately weighed sample (approximately 50 mg) of microbeads was transferred into a three necked vessel into which had been placed 15 ml pH 6.6 buffers (containing 0.1 M sodium bicarbonate, 10 mg/ml bile acid extract, 1.85 mg/ml pancreatin, adjust to pH 6.6 with 1M HCl) at 37° C. Generally, at 1, 15, 30, 45, 60 and occasionally at 90, 120 min time points, samples were taken for iron (II) and iron (III) measurement. […]

[3] = In-vivo efficacy: randomised double-blind cross-over, serum iron over 0-6 hours in fasting subjects; conditions: primary endpoint, p=0.017
Protocol: We evaluated the formulation in a randomised, double-blind, controlled with a 28 day cross-over to obtain a minimum of 6 paired evaluable healthy subjects with serum ferritin <100 ng/mL for comparison of the invention versus FeSO4.
In the analyses, comparisons between groups were conducted using paired sample t-tests for continuous variables and Wilcoxon's Rank Order tests for non-normal distributions. Shapiro-Wilks tests for normality were used to confirm assumptions that primary and secondary endpoints in the study population come from a normal distribution. If assumptions of normality were not possible, log-transformation was used or Wilcoxon's Rank Order tests were applied.
Subjects returned to the study site (within two weeks of Visit 1) for the first intervention day (Visit 2), after fasting since 10 pm the previous night. Subjects were pre-randomised into one of the two treatment groups with a washout period of four weeks between treatment phases: • Group 1: beads prepared in accordance with the invention, followed by FeSO4 • Group 2: FeSO4, followed by beads prepared in accordance with the invention
A blood sample was collected immediately after drinking the supplement and at 2 hours, 4 hours and 6 hours after dosing. […] Ferritin and haemoglobin were also assessed. […]

ferrous sulfate [FeSO4]
symptoms scores for abdominal pain/cramps, nausea, flatulence and constipation [1]: Significantly higher symptoms scores | iron II and total iron (ferrous and ferric) profile in dissolution [2]: undergoes oxidation and precipitates as ferric hydroxides | serum iron Trough to Peak Differential (TPD) over 0-6 hours, median [3]: 9.7 µmol/L
